Patent US4379917A, “6"-(Substituted)-apramycin antibiotic derivatives and intermediates and starting materials therefor” (Eli Lilly and Company, priority 1981, dated 1983)
≈ marks a conversion by molar mass, not a printed value. Like-named read-outs stand apart in the source and are kept apart here.

Experiments:
Assay type in all cases: cell-based
Proteus morganii PR1 = assay: MIC by standard agar dilution test; conditions: Morganella morganii, PR1, read-out: Minimum Inhibitory Concentration
[1] = system: Pseudomonas aeruginosa Ps25; assay: MIC by standard agar dilution test; conditions: PS25, read-out: Minimum Inhibitory Concentration
Salmonella typhimurium = assay: MIC by standard agar dilution test; conditions: Salmonella enterica, Table II, agar dilution, read-out: Minimum Inhibitory Concentration
Proteus morganii PR2 = assay: MIC by standard agar dilution test; conditions: Morganella morganii, PR2; Table 1; agar dilution; read-out: Minimum Inhibitory Concentration
[2] = system: Bordetella bronchiseptica 16; assay: MIC by standard agar dilution test; conditions: Bordetella bronchiseptica, 16; Table II; agar dilution; read-out: Minimum Inhibitory Concentration
[3] = system: Pseudomonas aeruginosa Ps15; assay: MIC by standard agar dilution test; conditions: PS15, read-out: Minimum Inhibitory Concentration
[4] = system: Pseudomonas aeruginosa X528; assay: MIC by standard agar dilution test; conditions: X528, Table 1, agar dilution, read-out: Minimum Inhibitory Concentration
[5] = system: Pseudomonas solanacearum X185; assay: microbe, parasite or virus in culture; conditions: Ralstonia solanacearum, X185, read-out: Minimum Inhibitory Concentration
[6] = system: Klebsiella pneumoniae KL2; assay: MIC by standard agar dilution test; conditions: KL2, read-out: Minimum Inhibitory Concentration
Serratia marcescens SE2 = assay: MIC by standard agar dilution test; conditions: SE2, read-out: Minimum Inhibitory Concentration
Salmonella typhosa SA12 = assay: MIC by standard agar dilution test; conditions: Salmonella enterica, read-out: Minimum Inhibitory Concentration
Serratia marcescens SE3 = assay: MIC by standard agar dilution test
[7] = system: Klebsiella pneumoniae KL14; assay: MIC by standard agar dilution test; conditions: KL14, read-out: Minimum Inhibitory Concentration
[8] = system: Pseudomonas aeruginosa PI23; assay: MIC by standard agar dilution test; conditions: PI23, Table 1, agar dilution, read-out: Minimum Inhibitory Concentration
Escherichia coli EC14 = assay: MIC by standard agar dilution test; conditions: EC14, read-out: Minimum Inhibitory Concentration
[9] = system: Pseudomonas aeruginosa X239; assay: MIC by standard agar dilution test
[10] = system: Enterobacter aerogenes EB17; assay: MIC by standard agar dilution test; conditions: Klebsiella aerogenes, EB17, read-out: Minimum Inhibitory Concentration
Serratia marcescens X99 = assay: MIC by standard agar dilution test; conditions: X99, read-out: Minimum Inhibitory Concentration
[11] = system: Enterobacter cloacae EB24; assay: MIC by standard agar dilution test; conditions: EB24, read-out: Minimum Inhibitory Concentration
[12] = system: Staphylococcus aureus 3055; assay: MIC by standard agar dilution test; conditions: Staphylococcus aureus, 3055, read-out: Minimum Inhibitory Concentration
[13] = system: Pseudomonas aeruginosa Ps9; assay: MIC by standard agar dilution test; conditions: PS9, Table 1, agar dilution, read-out: Minimum Inhibitory Concentration
[14] = system: Pseudomonas aeruginosa SF-2; assay: MIC by standard agar dilution test; conditions: SF2, read-out: Minimum Inhibitory Concentration
[15] = system: Pseudomonas aeruginosa X48; assay: MIC by standard agar dilution test; conditions: X48, read-out: Minimum Inhibitory Concentration
[16] = system: Streptococcus faecalis X66; assay: MIC by standard agar dilution test; conditions: Enterococcus faecalis, X66; Table II; agar dilution; read-out: Minimum Inhibitory Concentration
[17] = system: Enterobacter cloacae EN453; assay: MIC by standard agar dilution test; conditions: EN453, read-out: Minimum Inhibitory Concentration
[18] = system: Pseudomonas aeruginosa 4276; assay: MIC by standard agar dilution test; conditions: Pseudomonas aeruginosa, 4276, read-out: Minimum Inhibitory Concentration
[19] = system: Staphylococcus aureus 3074; assay: MIC by standard agar dilution test; conditions: Table II, read-out: Minimum Inhibitory Concentration
Description: (§1) The antibacterial activity of the antibiotic compounds of this invention is illustrated by the following in vitro and in vivo test data obtained with representative compounds. In Tables I and II the minimum inhibitory concentration (MIC) for representative compounds against a wide range of gram-positive and gram-negative bacteria is presented. The MIC values were obtained by the standard agar dilution test.

Erwinia amylovora = assay: MIC by standard agar dilution test; conditions: Table II, read-out: Minimum Inhibitory Concentration
Description: as §1

Proteus morganii PR15 = assay: MIC by standard agar dilution test; conditions: Morganella morganii, PR15; Table II; agar dilution; read-out: Minimum Inhibitory Concentration
[20] = system: Enterobacter aerogenes EB6; assay: MIC by standard agar dilution test; conditions: Klebsiella aerogenes, EB6, read-out: Minimum Inhibitory Concentration
[21] = system: Citrobacter freundii CF17; assay: MIC by standard agar dilution test; conditions: CF17, read-out: Minimum Inhibitory Concentration
Proteus inconstans PV25 = assay: MIC by standard agar dilution test; conditions: Providencia alcalifaciens, PV25, read-out: Minimum Inhibitory Concentration

SMILES: CN[C@@H]1[C@@H](O[C@H]2O[C@H](CCl)[C@@H](N)[C@H](O)[C@H]2O)O[C@H]2C[C@@H](N)[C@@H](O[C@H]3[C@H](O)[C@@H](O)[C@H](N)C[C@@H]3N)O[C@@H]2[C@@H]1O [Test Compound 3, 6"-Chloro-6"-Deoxyapramycin]
- MIC (Proteus morganii PR1): 4 µg/mL (≈ 7.17 µM)
- MIC [1]: 16 µg/mL (≈ 28.7 µM)
- MIC (Salmonella typhimurium): 8 µg/mL (≈ 14.3 µM)
- MIC (Proteus morganii PR2): 32 µg/mL (≈ 57.3 µM)
- MIC [2]: 8 µg/mL (≈ 14.3 µM)
- MIC [3]: 16 µg/mL (≈ 28.7 µM)
- MIC [4]: 32 µg/mL (≈ 57.3 µM)
- MIC [5]: 2 µg/mL (≈ 3.58 µM)
- MIC [6]: 4 µg/mL (≈ 7.17 µM)
- MIC (Serratia marcescens SE2): 4 µg/mL (≈ 7.17 µM)
- MIC (Salmonella typhosa SA12): 2 µg/mL (≈ 3.58 µM)
- MIC (Serratia marcescens SE3; SE3, read-out: Minimum Inhibitory Concentration, Table 1): 4 µg/mL (≈ 7.17 µM)
- MIC (Serratia marcescens SE3; SE3, read-out: Minimum Inhibitory Concentration, Table II): 16 µg/mL (≈ 28.7 µM)
- MIC [7]: 2 µg/mL (≈ 3.58 µM)
- MIC [8]: > 128 µg/mL
- MIC (Escherichia coli EC14): 16 µg/mL (≈ 28.7 µM)
- MIC ([9]; X239, Table 1, read-out: Minimum Inhibitory Concentration): 8 µg/mL (≈ 14.3 µM)
- MIC ([9]; X239, read-out: Minimum Inhibitory Concentration, Table II): 2 µg/mL (≈ 3.58 µM)
- MIC [10]: 16 µg/mL (≈ 28.7 µM)
- MIC (Serratia marcescens X99): 4 µg/mL (≈ 7.17 µM)
- MIC [11]: 4 µg/mL (≈ 7.17 µM)
- MIC [12]: 1 µg/mL (≈ 1.79 µM)
- MIC [13]: 32 µg/mL (≈ 57.3 µM)
- MIC [14]: 16 µg/mL (≈ 28.7 µM)
- MIC [15]: 16 µg/mL (≈ 28.7 µM)
- MIC [16]: 8 µg/mL (≈ 14.3 µM)
- MIC [17]: 4 µg/mL (≈ 7.17 µM)
- MIC [18]: 16 µg/mL (≈ 28.7 µM)
- MIC [19]: 1 µg/mL (≈ 1.79 µM)
- MIC (Erwinia amylovora): 1 µg/mL (≈ 1.79 µM)
- MIC (Proteus morganii PR15): 8 µg/mL (≈ 14.3 µM)
- MIC [20]: 4 µg/mL (≈ 7.17 µM)
- MIC [21]: 4 µg/mL (≈ 7.17 µM)
- MIC (Proteus inconstans PV25): 4 µg/mL (≈ 7.17 µM)
